Results: ChEMBL document CHEMBL3885881, “DrugMatrix”

Species on record: Rattus norvegicus
Test: DrugMatrix - Regimen: Daily Repeat
Format: toxicity, organism-based, Sprague-Dawley
Design: regimen Daily Repeat, gender Male, age 6-8 weeks
Conditions: in vivo, po, route oral GAVAGE, […]; for ABSOLUTE BASOPHIL / ABSOLUTE EOSINOPHIL / ABSOLUTE LYMPHOCYTE / ABSOLUTE MONOCYTE / ABSOLUTE SEGMENTED NEUTROPHIL / BASOPHIL / EOSINOPHIL / ERYTHROCYTE COUNT / HEMATOCRIT / HEMOGLOBIN / LEUKOCYTE COUNT / LYMPHOCYTE / MEAN CORPUSCULAR HEMOGLOBIN / MEAN CORPUSCULAR HEMOGLOBIN CONCENTRATION / MEAN CORPUSCULAR VOLUME / MONOCYTE / NEUTROPHIL / NUCLEATED RED BLOOD CELLS / PLATELET COUNT: tissue Blood; for ALANINE AMINOTRANSFERASE / ALBUMIN / ALKALINE PHOSPHATASE / ASPARTATE AMINOTRANSFERASE / BLOOD UREA NITROGEN / CARBON DIOXIDE / CHLORIDE / CHOLESTEROL / CREATINE PHOSPHOKINASE / CREATININE / GLUCOSE / LACTATE DEHYDROGENASE / LIPASE / PHOSPHORUS / POTASSIUM / SODIUM / TOTAL BILIRUBIN / TOTAL PROTEIN / URIC ACID: tissue Plasma
[1] = 100 mg/kg, 120 h, dose level Low, time 5 day
[2] = 448 mg/kg, 72 h, dose level High, time 3 day
[3] = 448 mg/kg, 120 h, dose level High, time 5 day

With `CC(C)(Oc1ccc(Cl)cc1)C(=O)O` [CLOFIBRIC ACID] as the compound, how does the “ABSOLUTE BASOPHIL” value [1] read?
The value was 0 CELLS/uL.

And the “ABSOLUTE EOSINOPHIL” value [1]?
Its value is 54.67 CELLS/uL.

What about the “ABSOLUTE LYMPHOCYTE” value [1] of the same compound?
Its value is 12665.33 CELLS/uL.

And the “ABSOLUTE MONOCYTE” value [1]?
Its value is 34.33 CELLS/uL.

What about the “ABSOLUTE SEGMENTED NEUTROPHIL” value [1] of the same compound?
The value was 1712.33 CELLS/uL.

And the BASOPHIL [1]?
The BASOPHIL was 0%.

What about the EOSINOPHIL [1] of the same compound?
The EOSINOPHIL was 0.33%.

And the “ERYTHROCYTE COUNT” value [1]?
Its value is 5.75 x10E6/uL.

What about the HEMATOCRIT [1] of the same compound?
The HEMATOCRIT was 35.5%.

What about the HEMOGLOBIN [1] of the same compound?
Its HEMOGLOBIN is 14.03 G/DL.

What about the “LEUKOCYTE COUNT” value [1] of the same compound?
The value was 14.47 x10E3/uL.

What about the LYMPHOCYTE [1] of the same compound?
Its LYMPHOCYTE is 87%.

What about the “MEAN CORPUSCULAR HEMOGLOBIN” value [1] of the same compound?
Its value is 24.43 pg.

And the “MEAN CORPUSCULAR HEMOGLOBIN CONCENTRATION” value [1]?
Its value is 39.53 G/DL.

And the “MEAN CORPUSCULAR VOLUME” value [1]?
The value was 61.77 fL.

What about the MONOCYTE [1] of the same compound?
The MONOCYTE was 0.33%.

And the NEUTROPHIL [1]?
Its NEUTROPHIL is 12.33%.

What about the “NUCLEATED RED BLOOD CELLS” value [1] of the same compound?
Its value is 0.33 /100WBC.

And the “PLATELET COUNT” value [1]?
Its value is 1147.33 x10E3/uL.

What about the “ALANINE AMINOTRANSFERASE” value [1] of the same compound?
The value was 63.67 u/L.

What about the ALBUMIN [1] of the same compound?
Its ALBUMIN is 4.37 G/DL.

What about the “ALKALINE PHOSPHATASE” value [1] of the same compound?
Its value is 342 u/L.

What about the “ASPARTATE AMINOTRANSFERASE” value [1] of the same compound?
Its value is 93.33 u/L.

And the “BLOOD UREA NITROGEN” value [1]?
The value was 15 mg/dL.

And the “CARBON DIOXIDE” value [1]?
Its value is 28 mmol/L.

And the CHLORIDE [1]?
The CHLORIDE was 101.33 MEQ/L.

What about the CHOLESTEROL [1] of the same compound?
The CHOLESTEROL was 50.67 mg/dL.

And the “CREATINE PHOSPHOKINASE” value [1]?
The value was 370.33 u/L.

What about the CREATININE [1] of the same compound?
Its CREATININE is 0.2 mg/dL.

And the GLUCOSE [1]?
Its GLUCOSE is 145.33 mg/dL.

What about the “LACTATE DEHYDROGENASE” value [1] of the same compound?
Its value is 275.67 u/L.

What about the LIPASE [1] of the same compound?
Its LIPASE is 9.67 u/L.

What about the PHOSPHORUS [1] of the same compound?
The PHOSPHORUS was 11.03 mg/dL.

And the POTASSIUM [1]?
The POTASSIUM was 5.96 MEQ/L.

What about the SODIUM [1] of the same compound?
Its SODIUM is 142.3 MEQ/L.

What about the “TOTAL BILIRUBIN” value [1] of the same compound?
The value was 0.2 mg/dL.

And the “TOTAL PROTEIN” value [1]?
The value was 5.73 G/DL.

And the “URIC ACID” value [1]?
Its value is 1.23 mg/dL.

What about the “ABSOLUTE BASOPHIL” value [2] of the same compound?
Its value is 0 CELLS/uL.

What about the “ABSOLUTE EOSINOPHIL” value [2] of the same compound?
The value was 0 CELLS/uL.

What about the “ABSOLUTE LYMPHOCYTE” value [2] of the same compound?
Its value is 10222.33 CELLS/uL.

And the “ABSOLUTE MONOCYTE” value [2]?
Its value is 204.67 CELLS/uL.

And the “ABSOLUTE SEGMENTED NEUTROPHIL” value [2]?
The value was 1606.33 CELLS/uL.

What about the BASOPHIL [2] of the same compound?
The BASOPHIL was 0%.

What about the EOSINOPHIL [2] of the same compound?
The EOSINOPHIL was 0%.

And the “ERYTHROCYTE COUNT” value [2]?
The value was 5.53 x10E6/uL.

What about the HEMATOCRIT [2] of the same compound?
Its HEMATOCRIT is 33.9%.

What about the HEMOGLOBIN [2] of the same compound?
Its HEMOGLOBIN is 13.1 G/DL.

What about the “LEUKOCYTE COUNT” value [2] of the same compound?
Its value is 12.03 x10E3/uL.

And the LYMPHOCYTE [2]?
Its LYMPHOCYTE is 85%.

And the “MEAN CORPUSCULAR HEMOGLOBIN” value [2]?
Its value is 23.73 pg.

And the “MEAN CORPUSCULAR HEMOGLOBIN CONCENTRATION” value [2]?
The value was 38.63 G/DL.

And the “MEAN CORPUSCULAR VOLUME” value [2]?
Its value is 61.37 fL.

What about the MONOCYTE [2] of the same compound?
Its MONOCYTE is 1.67%.

What about the NEUTROPHIL [2] of the same compound?
Its NEUTROPHIL is 13.33%.

What about the “NUCLEATED RED BLOOD CELLS” value [2] of the same compound?
The value was 0 /100WBC.

And the “PLATELET COUNT” value [2]?
Its value is 1067.33 x10E3/uL.

And the “ALANINE AMINOTRANSFERASE” value [2]?
The value was 82.33 u/L.

What about the ALBUMIN [2] of the same compound?
Its ALBUMIN is 4.4 G/DL.

And the “ALKALINE PHOSPHATASE” value [2]?
The value was 525.33 u/L.

And the “ASPARTATE AMINOTRANSFERASE” value [2]?
The value was 118.33 u/L.

What about the “BLOOD UREA NITROGEN” value [2] of the same compound?
The value was 13.33 mg/dL.

What about the “CARBON DIOXIDE” value [2] of the same compound?
The value was 33 mmol/L.

And the CHLORIDE [2]?
Its CHLORIDE is 98.33 MEQ/L.

And the CHOLESTEROL [2]?
The CHOLESTEROL was 39 mg/dL.

What about the “CREATINE PHOSPHOKINASE” value [2] of the same compound?
Its value is 203.67 u/L.

And the CREATININE [2]?
The CREATININE was 0.14 mg/dL.

What about the GLUCOSE [2] of the same compound?
The GLUCOSE was 149.33 mg/dL.

What about the “LACTATE DEHYDROGENASE” value [2] of the same compound?
The value was 172.67 u/L.

What about the LIPASE [2] of the same compound?
Its LIPASE is 8 u/L.

What about the PHOSPHORUS [2] of the same compound?
Its PHOSPHORUS is 11.27 mg/dL.

What about the POTASSIUM [2] of the same compound?
Its POTASSIUM is 6.66 MEQ/L.

And the SODIUM [2]?
Its SODIUM is 140.57 MEQ/L.

And the “TOTAL BILIRUBIN” value [2]?
Its value is 0.17 mg/dL.

And the “TOTAL PROTEIN” value [2]?
The value was 5.33 G/DL.

And the “URIC ACID” value [2]?
The value was 1.37 mg/dL.

What about the “ABSOLUTE BASOPHIL” value [3] of the same compound?
The value was 0 CELLS/uL.

And the “ABSOLUTE EOSINOPHIL” value [3]?
Its value is 0 CELLS/uL.

What about the “ABSOLUTE LYMPHOCYTE” value [3] of the same compound?
Its value is 14966.67 CELLS/uL.

And the “ABSOLUTE MONOCYTE” value [3]?
The value was 437.33 CELLS/uL.

And the “ABSOLUTE SEGMENTED NEUTROPHIL” value [3]?
The value was 2729.33 CELLS/uL.

And the BASOPHIL [3]?
The BASOPHIL was 0%.

And the EOSINOPHIL [3]?
The EOSINOPHIL was 0%.

And the “ERYTHROCYTE COUNT” value [3]?
The value was 5.64 x10E6/uL.

What about the HEMATOCRIT [3] of the same compound?
The HEMATOCRIT was 35.03%.

What about the HEMOGLOBIN [3] of the same compound?
Its HEMOGLOBIN is 13.4 G/DL.

And the “LEUKOCYTE COUNT” value [3]?
The value was 18.13 x10E3/uL.

And the LYMPHOCYTE [3]?
Its LYMPHOCYTE is 82.67%.

What about the “MEAN CORPUSCULAR HEMOGLOBIN” value [3] of the same compound?
The value was 23.77 pg.

What about the “MEAN CORPUSCULAR HEMOGLOBIN CONCENTRATION” value [3] of the same compound?
Its value is 38.27 G/DL.

And the “MEAN CORPUSCULAR VOLUME” value [3]?
Its value is 62.17 fL.

And the MONOCYTE [3]?
The MONOCYTE was 2.33%.

And the NEUTROPHIL [3]?
The NEUTROPHIL was 15%.

And the “NUCLEATED RED BLOOD CELLS” value [3]?
The value was 0 /100WBC.

What about the “PLATELET COUNT” value [3] of the same compound?
The value was 1012.67 x10E3/uL.

What about the “ALANINE AMINOTRANSFERASE” value [3] of the same compound?
Its value is 61 u/L.

What about the ALBUMIN [3] of the same compound?
Its ALBUMIN is 4.6 G/DL.

What about the “ALKALINE PHOSPHATASE” value [3] of the same compound?
Its value is 409.33 u/L.

What about the “ASPARTATE AMINOTRANSFERASE” value [3] of the same compound?
The value was 90.67 u/L.

And the “BLOOD UREA NITROGEN” value [3]?
The value was 17.33 mg/dL.

What about the “CARBON DIOXIDE” value [3] of the same compound?
The value was 28.33 mmol/L.

And the CHLORIDE [3]?
Its CHLORIDE is 106.67 MEQ/L.

What about the CHOLESTEROL [3] of the same compound?
Its CHOLESTEROL is 46.33 mg/dL.

And the “CREATINE PHOSPHOKINASE” value [3]?
Its value is 195.67 u/L.

And the CREATININE [3]?
Its CREATININE is 0.19 mg/dL.

And the GLUCOSE [3]?
Its GLUCOSE is 158 mg/dL.

And the “LACTATE DEHYDROGENASE” value [3]?
The value was 194.33 u/L.

What about the LIPASE [3] of the same compound?
Its LIPASE is 9.33 u/L.

What about the PHOSPHORUS [3] of the same compound?
The PHOSPHORUS was 9.7 mg/dL.

What about the POTASSIUM [3] of the same compound?
Its POTASSIUM is 6.4 MEQ/L.

What about the SODIUM [3] of the same compound?
Its SODIUM is 149.4 MEQ/L.

And the “TOTAL BILIRUBIN” value [3]?
The value was 0.1 mg/dL.

What about the “TOTAL PROTEIN” value [3] of the same compound?
The value was 5.63 G/DL.

And the “URIC ACID” value [3]?
The value was 1.5 mg/dL.
